Activity calls are given as the source filed them. No rule for the calls is given here.
System: CCRIS mutagenicity, Ames/micronucleus/aberration tests
Assay: CCRIS mutagenicity studies
[1] = Test System: AMES SALMONELLA TYPHIMURIUM, Strain/Indicator: TA98, Metabolic Activation: NONE, Method: PREINCUBATION
[2] = Test System: AMES SALMONELLA TYPHIMURIUM, Strain/Indicator: TA100, Metabolic Activation: NONE, Method: PREINCUBATION
[3] = Test System: AMES SALMONELLA TYPHIMURIUM, Strain/Indicator: TA1535, Metabolic Activation: NONE, Method: PREINCUBATION
[4] = Test System: AMES SALMONELLA TYPHIMURIUM, Strain/Indicator: TA1537, Metabolic Activation: NONE, Method: PREINCUBATION
[5] = Test System: AMES SALMONELLA TYPHIMURIUM, Strain/Indicator: TA98, Metabolic Activation: NONE, Method: STANDARD PLATE
[6] = Test System: AMES SALMONELLA TYPHIMURIUM, Strain/Indicator: TA100, Metabolic Activation: NONE, Method: STANDARD PLATE

Measured: mutagenic call

Nc1cc(S(=O)(=O)O)c2cccc(S(=O)(=O)O)c2c1
inactive: [1] inactive; negative | Test System: AMES SALMONELLA TYPHIMURIUM, Strain/Indicator: TA98, Metabolic Activation: RAT LIVER S-9, PHENOBARBITAL AND BETA-NAPHTHOFLAVONE, Method: PREINCUBATION inactive; negative | [2] inactive; negative | Test System: AMES SALMONELLA TYPHIMURIUM, Strain/Indicator: TA100, Metabolic Activation: RAT LIVER S-9, PHENOBARBITAL AND BETA-NAPHTHOFLAVONE, Method: PREINCUBATION inactive; negative | [3] inactive; negative | Test System: AMES SALMONELLA TYPHIMURIUM, Strain/Indicator: TA1535, Metabolic Activation: RAT LIVER S-9, PHENOBARBITAL AND BETA-NAPHTHOFLAVONE, Method: PREINCUBATION inactive; negative | [4] inactive; negative | Test System: AMES SALMONELLA TYPHIMURIUM, Strain/Indicator: TA1537, Metabolic Activation: RAT LIVER S-9, PHENOBARBITAL AND BETA-NAPHTHOFLAVONE, Method: PREINCUBATION inactive; negative | Test System: AMES SALMONELLA TYPHIMURIUM, Strain/Indicator: TA1538, Metabolic Activation: NONE, Method: PREINCUBATION inactive; negative | Test System: AMES SALMONELLA TYPHIMURIUM, Strain/Indicator: TA1538, Metabolic Activation: RAT LIVER S-9, PHENOBARBITAL AND BETA-NAPHTHOFLAVONE, Method: PREINCUBATION inactive; negative | Test System: E.COLI, Strain/Indicator: WP2UVRA, Metabolic Activation: NONE, Method: PREINCUBATION inactive; negative | Test System: E.COLI, Strain/Indicator: WP2UVRA, Metabolic Activation: RAT LIVER S-9, PHENOBARBITAL AND BETA-NAPHTHOFLAVONE, Method: PREINCUBATION inactive; negative

CCOP(=O)(OCC)Oc1ccc([N+](=O)[O-])cc1
inactive: [6] inactive; negative
active: End Point: IN VITRO MICRONUCLEUS, Test System: HUMAN NEWBORN UMBILICAL CORD BLOOD, Metabolic Activation: NONE active; positive only at highest dose | End Point: IN VITRO MICRONUCLEUS, Test System: HUMAN PERIPHERAL LYMPHOCYTES (MALE/FEMALE ADULT), Metabolic Activation: NONE active; positive only at highest dose | End Point: In vitro micronucleus, Test System: Human peripheral blood lymphocytes, Metabolic Activation: None active; positive. pon1 qq, but not pon1 rr individuals exhibited significant increase in | [5] active; positive | Test System: AMES SALMONELLA TYPHIMURIUM, Strain/Indicator: TA98, Metabolic Activation: RAT, LIVER, S-9, Method: STANDARD PLATE active; positive | Test System: AMES SALMONELLA TYPHIMURIUM, Strain/Indicator: TA100, Metabolic Activation: RAT, LIVER, S-9, Method: STANDARD PLATE active; positive

C=C1/C(=C\C=C2/CCC[C@]3(C)[C@@H]([C@H](C)CCCC(C)(C)O)CC[C@@H]23)C[C@@H](O)C[C@@H]1O
inactive: End Point: IN VIVO CHROMOSOMAL ABERRATIONS, Test System: BONE MARROW CELLS, Species: RAT, Strain/Sex: WISTAR, Route: ORAL inactive; negative

COP(=O)(NC(C)=O)SC (stereo not given)
active: Test System: Mouse Lymphoma, Strain/Indicator: L5178Y (TK+/TK-), Metabolic Activation: None, Method: Suspension/Plate active; positive; dose-dependent increase | Test System: Mouse Lymphoma, Strain/Indicator: L5178Y (TK+/TK-), Metabolic Activation: Rat, liver S-9, Method: Suspension/Plate active; positive; dose-dependent increase
inactive: [5] inactive; negative | [6] inactive; negative | Test System: AMES SALMONELLA TYPHIMURIUM, Strain/Indicator: TA1535, Metabolic Activation: NONE, Method: STANDARD PLATE inactive; negative

Cn1c(-c2ccccc2)c(N=Nc2scc[n+]2C)c2ccccc21
active: Test System: AMES SALMONELLA TYPHIMURIUM, Strain/Indicator: TA1537, Metabolic Activation: HAMSTER, LIVER, S-9, AROCLOR 1254, Method: STANDARD PLATE active; positive | Test System: AMES SALMONELLA TYPHIMURIUM, Strain/Indicator: TA1537, Metabolic Activation: NONE, Method: STANDARD PLATE active; positive | Test System: AMES SALMONELLA TYPHIMURIUM, Strain/Indicator: TA1537, Metabolic Activation: RAT, LIVER, S-9, AROCLOR 1254, Method: STANDARD PLATE active; positive | Test System: Mouse lymphoma, Strain/Indicator: L5178Y (tk+/tk-), Metabolic Activation: None, Method: Suspension/plate active; inconclusive (previous evaluation positive) | Test System: Mouse lymphoma, Strain/Indicator: L5178Y (tk+/tk-), Metabolic Activation: Rat, Liver, S-9, Aroclor 1254, Method: Suspension/plate active; inconclusive (previous evaluation positive)

CCOc1ccc(N(O)C(C)=O)cc1
inactive: [2] inactive; negative
active: End Point: IN VITRO MICRONUCLEUS, Test System: RAT KIDNEY FIBROBLAST NRK-49F, Metabolic Activation: NONE active; positive | Test System: AMES SALMONELLA TYPHIMURIUM, Strain/Indicator: TA100, Metabolic Activation: HAMSTER, LIVER, S-9, AROCLOR 1254, Method: LIQUID SUSPENSION active; positive | Test System: AMES SALMONELLA TYPHIMURIUM, Strain/Indicator: TA100, Metabolic Activation: HAMSTER, LIVER, S-9, KANECHLOR 400 (WITHOUT NADPH GENERATING SYSTEM), Method: PREINCUBATION active; positive | Test System: AMES SALMONELLA TYPHIMURIUM, Strain/Indicator: TA100, Metabolic Activation: RAT, LIVER, S-9, PCB, Method: LIQUID SUSPENSION active; positive

NC(N)=NC(=O)c1nc(Cl)c(N)nc1N
active: Test System: AMES SALMONELLA TYPHIMURIUM, Strain/Indicator: TA1537, Metabolic Activation: HAMSTER, LIVER, S-9, AROCLOR 1254 (30%), Method: PREINCUBATION active; positive | [4] active; positive | Test System: AMES SALMONELLA TYPHIMURIUM, Strain/Indicator: TA1537, Metabolic Activation: RAT, LIVER, S-9, AROCLOR 1254 (30%), Method: PREINCUBATION active; positive
inactive: Test System: AMES SALMONELLA TYPHIMURIUM, Strain/Indicator: TA97, Metabolic Activation: HAMSTER, LIVER, S-9, AROCLOR 1254 (5, 10 OR 30%), Method: PREINCUBATION inactive; negative | Test System: AMES SALMONELLA TYPHIMURIUM, Strain/Indicator: TA97, Metabolic Activation: NONE, Method: PREINCUBATION inactive; negative | Test System: AMES SALMONELLA TYPHIMURIUM, Strain/Indicator: TA97, Metabolic Activation: RAT, LIVER, S-9, AROCLOR 1254 (5, 10 OR 30%), Method: PREINCUBATION inactive; negative | Test System: AMES SALMONELLA TYPHIMURIUM, Strain/Indicator: TA98, Metabolic Activation: HAMSTER, LIVER, S-9, AROCLOR 1254 (30%), Method: PREINCUBATION inactive; negative | [1] inactive; negative | Test System: AMES SALMONELLA TYPHIMURIUM, Strain/Indicator: TA98, Metabolic Activation: RAT, LIVER, S-9, AROCLOR 1254 (30%), Method: PREINCUBATION inactive; negative | Test System: AMES SALMONELLA TYPHIMURIUM, Strain/Indicator: TA100, Metabolic Activation: HAMSTER, LIVER, S-9, AROCLOR 1254 (30%), Method: PREINCUBATION inactive; negative | [2] inactive; negative | Test System: AMES SALMONELLA TYPHIMURIUM, Strain/Indicator: TA100, Metabolic Activation: RAT, LIVER, S-9, AROCLOR 1254 (30%), Method: PREINCUBATION inactive; negative | Test System: AMES SALMONELLA TYPHIMURIUM, Strain/Indicator: TA1535, Metabolic Activation: HAMSTER, LIVER, S-9, AROCLOR 1254 (30%), Method: PREINCUBATION inactive; negative | [3] inactive; negative | Test System: AMES SALMONELLA TYPHIMURIUM, Strain/Indicator: TA1535, Metabolic Activation: RAT, LIVER, S-9, AROCLOR 1254 (30%), Method: PREINCUBATION inactive; negative

Source: PubChem BioAssay AID1259407 (Chemical Carcinogenesis Research Information System (CCRIS), 2018)
